Measured values as given in patent publication EP4610269A1, “UROKINASE PLASMINOGEN ACTIVATOR SURFACE RECEPTOR (UPAR) LIGANDS FOR DIAGNOSTIC OR THERAPEUTIC USE” (3B Pharmaceuticals GmbH, priority 2024, dated 2025).
Where two headings read alike, the source gives them in different places. *1 amine or outer side, *2 acyl side, *3 side chain or, on linkers, in order; H or OH if unused. Where a SMILES comes first, the peptide text is derived from it. Bridges are numbered along the chain shown (N, C = ends). [ ]: non-standard residue; d: D form. The star is where a group is joined. DOTA = O=C(O)CN1CCN(CC(=O)O)CCN(CC(=O)*)CCN(CC(=O)O)CC1; Pro(cis-4-F) = O=C(O)[C@@H]1C[C@H](F)CN1; 1Nal = N[C@@H](Cc1cccc2ccccc12)C(=O)O; cisHyp = O=C(O)[C@@H]1C[C@H](O)CN1; Ser(ΨH,HPro) = O=C(O)[C@@H]1COCN1; Hyp = O=C(O)[C@@H]1C[C@@H](O)CN1; Pentanoyl(4-Me) = CC(C)CCC(=O)*; Cit = NC(=O)NCCC[C@H](N)C(=O)O; Butoxycarbonyl = CCCCOC(=O)*; Nle = CCCC[C@H](N)C(=O)O; Orn = NCCC[C@H](N)C(=O)O; dNMeA = CN[C@H](C)C(=O)O; Api = NC1(C(=O)O)CCNCC1; Nva = CCC[C@H](N)C(=O)O; Hexanoyl = CCCCCC(=O)*; Pentanoyl = CCCCC(=O)*; CO = O=C([*:1])[*:2]; Bz = O=C(c1ccccc1)*; X7 = CCCOCC(=O)*; NHPr = CCCN*

Assays:
[1] = target: T1, uPAR-expressing HEC-265 human endometrial adenocarcinoma cells (Homo sapiens, UniProt Q03405); test: Competitive FACS binding assay; conditions: pIC50 category of FACS binding
T1 construct: Cell surface uPAR-expressing HEC-265 human endometrial adenocarcinoma cells; host or cells: HEC-265
T1 sequence (Q03405 23-335): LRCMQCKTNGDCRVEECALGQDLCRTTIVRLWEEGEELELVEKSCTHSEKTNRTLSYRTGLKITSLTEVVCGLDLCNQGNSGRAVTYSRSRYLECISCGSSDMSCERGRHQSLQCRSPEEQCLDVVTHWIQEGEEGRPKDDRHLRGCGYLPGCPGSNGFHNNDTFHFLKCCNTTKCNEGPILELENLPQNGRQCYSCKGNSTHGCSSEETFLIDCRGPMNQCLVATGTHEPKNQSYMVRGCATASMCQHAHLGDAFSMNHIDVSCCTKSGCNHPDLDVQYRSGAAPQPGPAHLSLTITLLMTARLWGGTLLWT
How it was run: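 Competitive displacement of a 10 nM biotinylated peptide from HEC-265 cells (1 h, 4 °C, PBS/1% BSA), detected via APC-streptavidin by flow cytometry. pIC50 from four-parameter logistic fit of median fluorescence versus concentration.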

human uPAR (uPAR-Fc) = target: T2, human uPAR (uPAR-Fc) (Homo sapiens, UniProt Q03405); test: Surface plasmon resonance (SPR) assay, single cycle kinetics; type: binding; conditions: pKD category for uPAR SPR activity assay, uPAR-Fc on Protein A-Chip, 25°C, read-out: pKD CAT (converted)
T2 construct: comprising amino acids Leu23-Arg303 according to UniProt entry Q03405.1; purchased R&D Systems 10378-UK-100
T2 sequence (Q03405 23-303): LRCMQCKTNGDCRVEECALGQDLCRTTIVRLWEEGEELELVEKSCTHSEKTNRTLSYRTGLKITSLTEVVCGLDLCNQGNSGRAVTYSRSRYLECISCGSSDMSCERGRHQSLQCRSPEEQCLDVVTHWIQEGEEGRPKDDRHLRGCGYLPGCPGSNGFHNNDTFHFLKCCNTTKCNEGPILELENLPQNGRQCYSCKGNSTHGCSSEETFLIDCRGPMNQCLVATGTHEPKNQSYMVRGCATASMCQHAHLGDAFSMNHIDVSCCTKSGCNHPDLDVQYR
How it was run: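 uPAR-Fc (Leu23-Arg303 extracellular domains, human IgG1 Fc) captured on Protein A chip to ~2000 RU; single-cycle kinetics at 25°C in HEPES running buffer pH 7.4 with 0.1% DMSO. KD from double-referenced sensorgrams fitted to 1:1 Langmuir model, reported as pKD.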

Row | IC50 [1] [µM] | Kd (human uPAR (uPAR-Fc)) [µM] | Kd (human uPAR (uPAR-Fc); single cycle kinetics) [µM] | SMILES
1 | ≥ 0.126 | > 0.1 |  | CCCCC(=O)N[C@H]1CSSC[C@@H](C(N)=O)NC(=O)[C@H](CCC)NC(=O)[C@H]([C@@H](C)CC)NC(=O)[C@@H]2C[C@@H](O)CN2C(=O)[C@@H](C)N(C)C(=O)[C@H](Cc2ccccc2)NC(=O)[C@H](Cc2ccc(O)cc2)NC(=O)[C@H](CCC(N)=O)NC(=O)[C@H](CCCNC(=N)N)NC1=O [UPAR-211, Pent-[Cys-Arg-Gln-Tyr-Phe-nma-Hyp-Ile-Nva-Cys]-NH2] (Pentanoyl-CRQYF[dNMeA][Hyp]I[Nva]C-NH2; disulfide 1-10)
2 | ≤ 0.01 |  | 0.00158 to 0.01 | CCCCC(=O)N[C@H]1CSSC[C@@H](C(N)=O)NC(=O)[C@H](CCC)NC(=O)[C@H]([C@@H](C)CC)NC(=O)[C@@H]2C[C@@H](O)CN2C(=O)[C@@H]2C[C@H](O)CN2C(=O)[C@H](Cc2ccccc2)NC(=O)[C@H](Cc2ccc(O)cc2)NC(=O)[C@H](CCCCNC(=O)CN2CCN(CC(=O)O)CCN(CC(=O)O)CCN(CC(=O)O)CC2)NC(=O)[C@H]([C@@H](C)O)NC1=O [UPAR-388, Pent-[Cys-Thr-Lys(DOTA)-Tyr-Phe-Chy-Hyp-Ile-Nva-Cys]-NH2] (Pentanoyl-CTK(DOTA)YF[cisHyp][Hyp]I[Nva]C-NH2; disulfide 1-10)
3 | ≤ 0.01 | < 0.00158 |  | CCCCC(=O)N[C@H]1CSSC[C@@H](C(N)=O)NC(=O)[C@H](CCC)NC(=O)[C@H]([C@@H](C)CC)NC(=O)[C@@H](CO)NC(=O)[C@@H]2CCCN2C(=O)[C@H](Cc2ccccc2)NC(=O)[C@H](Cc2ccc(O)cc2)NC(=O)[C@H](CCC(N)=O)NC(=O)[C@H](CCCNC(=N)N)NC1=O [UPAR-329, Pent-[Cys-Arg-Gln-Tyr-Phe-Pro-ser-Ile-Nva-Cys]-NH2] (Pentanoyl-CRQYFP[dS]I[Nva]C-NH2; disulfide 1-10)
4 | ≤ 0.01 |  | < 0.00158 | CCCCCC(=O)N[C@H]1CSSC[C@@H](C(N)=O)NC(=O)[C@H](CC(C)C)NC(=O)[C@H]([C@@H](C)CC)NC(=O)[C@@H](C)NC(=O)[C@@H]2CCCN2C(=O)[C@H](Cc2ccccc2)NC(=O)[C@H](Cc2ccc(O)cc2)NC(=O)[C@H](CCC(N)=O)NC(=O)[C@H](CCCNC(N)=O)NC1=O [UPAR-475, Hex-[Cys-Cit-Gln-Tyr-Phe-Pro-ala-Ile-Leu-Cys]-NH2] (Hexanoyl-C[Cit]QYFP[dA]ILC-NH2; disulfide 1-10)
5 | ≥ 0.126 | > 0.1 |  | CCCC[C@@H]1NC(=O)[C@H](CCCNC(=N)N)NC(=O)[C@@H](NC(=O)[C@H](CC(C)C)NC(=O)[C@H](CC(=O)O)NC(C)=O)CSSC[C@@H](C(N)=O)NC(=O)[C@H](CC(C)C)NC(=O)[C@H]([C@@H](C)CC)NC(=O)[C@H](C)NC(=O)[C@@H]2CCCN2C(=O)[C@@H](Cc2ccccc2)NC(=O)[C@H](Cc2ccc(O)cc2)NC1=O [UPAR-230, Ac-Asp-Leu-[Cys-Arg-Nle-Tyr-phe-Pro-Ala-Ile-Leu-Cys]-NH2] (Ac-DLCR[Nle]Y[dF]PAILC-NH2; disulfide 3-12)
6 | ≤ 0.01 | 0.00158 to 0.01 |  | CCC[C@@H]1NC(=O)[C@@H](C)NC(=O)[C@@H]2CCCN2C(=O)[C@H](Cc2ccccc2)NC(=O)[C@H](Cc2ccc(O)cc2)NC(=O)[C@H](CCC(N)=O)NC(=O)[C@H](CCCNC(N)=O)NC(=O)[C@@H](NC(=O)CCC(C)C)CSSC[C@@H](C(N)=O)NC(=O)[C@H](CC(C)C)NC1=O [UPAR-136, iHex-[Cys-Cit-Gln-Tyr-Phe-Pro-ala-Nva-Leu-Cys]-NH2] ({Pentanoyl(4-Me)}-C[Cit]QYFP[dA][Nva]LC-NH2; disulfide 1-10)
7 | ≤ 0.01 |  | < 0.00158 | CCCCC(=O)N[C@H]1CSSC[C@@H](C(N)=O)NC(=O)[C@H](CCC)NC(=O)[C@H]([C@@H](C)CC)NC(=O)[C@@H]2C[C@@H](O)CN2C(=O)[C@@H]2C[C@H](F)CN2C(=O)[C@H](Cc2ccccc2)NC(=O)[C@H](Cc2ccc(O)cc2)NC(=O)[C@H](CCCCNC(=O)CN2CCN(CC(=O)O)CCN(CC(=O)O)CCN(CC(=O)O)CC2)NC(=O)[C@H](CCCNC(N)=O)NC1=O [UPAR-365, Pent-[Cys-Cit-Lys(DOTA)-Tyr-Phe-4Cfp-Hyp-Ile-Nva-Cys]-NH2] (Pentanoyl-C[Cit]K(DOTA)YF[Pro(cis-4-F)][Hyp]I[Nva]C-NH2; disulfide 1-10)
8 | ≤ 0.01 | < 0.00158 |  | CCCNC(=O)N[C@H]1CSSC[C@@H](C(N)=O)NC(=O)[C@H](CCC)NC(=O)[C@H]([C@@H](C)CC)NC(=O)[C@@H]2C[C@@H](O)CN2C(=O)[C@@H]2CCCN2C(=O)[C@H](Cc2ccccc2)NC(=O)[C@H](Cc2ccc(O)cc2)NC(=O)[C@H](CCCCNC(=O)CN2CCN(CC(=O)O)CCN(CC(=O)O)CCN(CC(=O)O)CC2)NC(=O)[C@H](CCCNC(N)=O)NC1=O [UPAR-210, PrCAyl-[Cys-Cit-Lys(DOTA)-Tyr-Phe-Pro-Hyp-Ile-Nva-Cys]-NH2] ({NHPr-CO}-C[Cit]K(DOTA)YFP[Hyp]I[Nva]C-NH2; disulfide 1-10)
9 | ≥ 0.126 | > 0.1 |  | CCCCC(=O)N[C@@H](C)C(=O)N[C@@H](CCCNC(N)=O)C(=O)N[C@@H](CCC(N)=O)C(=O)N[C@@H](Cc1ccc(O)cc1)C(=O)N[C@@H](Cc1ccccc1)C(=O)N1CCC[C@H]1C(=O)N1C[C@H](O)C[C@H]1C(=O)N[C@H](C(=O)N[C@@H](CCC)C(=O)N[C@@H](CSC)C(N)=O)[C@@H](C)CC [UPAR-205, Pent-Ala-Cit-Gln-Tyr-Phe-Pro-Hyp-Ile-Nva-Smc-NH2] (Pentanoyl-A[Cit]QYFP[Hyp]I[Nva]C(Me)-NH2)
10 | ≤ 0.01 |  | < 0.00158 | CCC[C@@H]1NC(=O)[C@H]([C@@H](C)CC)NC(=O)[C@@H]2C[C@@H](O)CN2C(=O)[C@@H]2CCCN2C(=O)[C@H](Cc2ccccc2)NC(=O)[C@H](Cc2ccc(O)cc2)NC(=O)[C@H](CCC(N)=O)NC(=O)[C@H](CCCNC(=N)N)NC(=O)[C@@H](NC(=O)c2ccccc2)CSSC[C@@H](C(N)=O)NC1=O [UPAR-356, Bz-[Cys-Arg-Gln-Tyr-Phe-Pro-Hyp-Ile-Nva-Cys]-NH2] (Bz-CRQYFP[Hyp]I[Nva]C-NH2; disulfide 1-10)
11 | 0.0126 to 0.0316 | 0.00158 to 0.01 |  | CCCC[C@@H]1NC(=O)[C@H](CCCNC(=N)N)NC(=O)[C@@H](NC(=O)[C@H](CC(C)C)NC(=O)[C@H](CC(=O)O)NC(C)=O)CSSC[C@H](C(N)=O)NC(=O)[C@H](CC(C)C)NC(=O)[C@H]([C@@H](C)CC)NC(=O)[C@H](C)NC(=O)[C@@H]2CCCN2C(=O)[C@H](Cc2ccccc2)NC(=O)[C@H](Cc2ccc(O)cc2)NC1=O [UPAR-323, Ac-Asp-Leu-[Cys-Arg-Nle-Tyr-Phe-Pro-Ala-Ile-Leu-cys]-NH2] (Ac-DLCR[Nle]YFPAIL[dC]-NH2; disulfide 3-12)
12 | ≤ 0.01 | < 0.00158 |  | CC[C@H](C)[C@@H]1NC(=O)[C@@H](C)NC(=O)[C@@H]2CCCN2C(=O)[C@H](Cc2cccc3ccccc23)NC(=O)[C@H](Cc2ccc(O)cc2)NC(=O)[C@H](CCC(N)=O)NC(=O)[C@H](CCCNC(N)=O)NC(=O)[C@@H](NC(=O)CCC(C)C)CSSC[C@@H](C(N)=O)NC(=O)[C@H](CC(C)C)NC1=O [UPAR-310, iHex-[Cys-Cit-Gln-Tyr-1Ni-Pro-ala-Ile-Leu-Cys]-NH2] ({Pentanoyl(4-Me)}-C[Cit]QY[1Nal]P[dA]ILC-NH2; disulfide 1-10)
13 | ≤ 0.01 | < 0.00158 |  | CC[C@H](C)[C@@H]1NC(=O)[C@@H]2COCN2C(=O)[C@@H]2CCCN2C(=O)[C@H](Cc2ccccc2)NC(=O)[C@H](Cc2ccc(O)cc2)NC(=O)[C@H](CCC(N)=O)NC(=O)[C@H](CCCNC(N)=O)NC(=O)[C@@H](NC(=O)CCC(C)C)CSSC[C@@H](C(N)=O)NC(=O)[C@H](CC(C)C)NC1=O [UPAR-262, iHex-[Cys-Cit-Gln-Tyr-Phe-Pro-Oxa-Ile-Leu-Cys]-NH2] ({Pentanoyl(4-Me)}-C[Cit]QYFP[Ser(ΨH,HPro)]ILC-NH2; disulfide 1-10)
14 | ≤ 0.01 | 0.00158 to 0.01 |  | CC[C@H](C)[C@@H]1NC(=O)C2(CCN(C(=O)CN3CCN(CC(=O)O)CCN(CC(=O)O)CCN(CC(=O)O)CC3)CC2)NC(=O)[C@@H]2CCCN2C(=O)[C@H](Cc2ccccc2)NC(=O)[C@H](Cc2ccc(O)cc2)NC(=O)[C@H](CCC(N)=O)NC(=O)[C@H](CCCNC(N)=O)NC(=O)[C@@H](NC(=O)CCC(C)C)CSSC[C@@H](C(N)=O)NC(=O)[C@H](CC(C)C)NC1=O [UPAR-219, iHex-[Cys-Cit-Gln-Tyr-Phe-Pro-Apc(DOTA)-Ile-Leu-Cys]-NH2] ({Pentanoyl(4-Me)}-C[Cit]QYFP[Api](DOTA)ILC-NH2; disulfide 1-10)
15 | 0.0126 to 0.0316 | 0.01 to 0.1 |  | CCCOCC(=O)N[C@H]1CSSC[C@@H](C(N)=O)NC(=O)[C@H](CC(C)C)NC(=O)[C@H]([C@@H](C)CC)NC(=O)[C@@H](C)NC(=O)[C@@H]2CCCN2C(=O)[C@H](Cc2ccccc2)NC(=O)[C@H](Cc2ccc(O)cc2)NC(=O)[C@H](CCC(N)=O)NC(=O)[C@H](CCCNC(N)=O)NC1=O [UPAR-212, PrOAc-[Cys-Cit-Gln-Tyr-Phe-Pro-ala-Ile-Leu-Cys]-NH2] (X7-C[Cit]QYFP[dA]ILC-NH2; disulfide 1-10)

Row | SMILES | IC50 [1] [µM] | Kd (human uPAR (uPAR-Fc)) [µM] | Kd (human uPAR (uPAR-Fc); single cycle kinetics) [µM]
16 | CCCCOC(=O)N[C@H]1CSSC[C@@H](C(N)=O)NC(=O)[C@H](CCC)NC(=O)[C@H]([C@@H](C)CC)NC(=O)[C@@H]2C[C@@H](O)CN2C(=O)[C@@H]2C[C@H](F)CN2C(=O)[C@H](Cc2ccccc2)NC(=O)[C@H](Cc2ccc(O)cc2)NC(=O)[C@H](CCCNC(=O)CN2CCN(CC(=O)O)CCN(CC(=O)O)CCN(CC(=O)O)CC2)NC(=O)[C@H]([C@@H](C)O)NC1=O [UPAR-192, Butoc-[Cys-Thr-Orn(DOTA)-Tyr-Phe-4Cfp-Hyp-Ile-Nva-Cys]-NH2] (Butoxycarbonyl-CT[Orn](DOTA)YF[Pro(cis-4-F)][Hyp]I[Nva]C-NH2; disulfide 1-10) | ≤ 0.01 | < 0.00158 | 
